Laboratory results: article PMC12136037, “Type II kinase inhibitors that target Parkinson’s disease–associated LRRK2” (Science Advances, 2025)
Several values for one entry are separate records, joined by “and”; a condition that tells them apart may be missing. Equal entries are not always repeated. Where two headings read alike, the source gives them in different places.

Columns and labels:
350 wild-type kinases [1] = target: T1, 350 wild-type kinases (Homo sapiens, UniProt Q13131); assay: 33PanQinase kinome-wide selectivity profile (Reaction Biology); format: biochemical; conditions: kinase AMPKalpha1, ATP 3 µM, singlicate
T1 construct: purchased Reaction Biology (assay service)
T1 sequence (Q13131 whole entry): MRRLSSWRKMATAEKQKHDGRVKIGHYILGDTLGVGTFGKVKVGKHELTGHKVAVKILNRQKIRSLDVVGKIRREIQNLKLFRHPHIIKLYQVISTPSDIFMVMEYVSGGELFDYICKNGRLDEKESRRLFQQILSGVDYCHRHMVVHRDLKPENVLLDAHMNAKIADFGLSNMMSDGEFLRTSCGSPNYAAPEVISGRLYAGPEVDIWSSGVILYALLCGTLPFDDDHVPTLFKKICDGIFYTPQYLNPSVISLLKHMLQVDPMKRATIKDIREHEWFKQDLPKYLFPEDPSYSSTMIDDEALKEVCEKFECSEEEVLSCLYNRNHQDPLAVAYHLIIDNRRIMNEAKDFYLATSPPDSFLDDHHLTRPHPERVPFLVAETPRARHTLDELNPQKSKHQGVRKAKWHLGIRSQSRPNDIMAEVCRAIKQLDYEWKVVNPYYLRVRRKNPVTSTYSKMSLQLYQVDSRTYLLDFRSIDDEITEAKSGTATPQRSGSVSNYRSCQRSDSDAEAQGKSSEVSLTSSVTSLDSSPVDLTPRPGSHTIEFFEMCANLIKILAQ
Procedure: (§1) Compound RN341 was tested at two concentrations of 1 and 10 μM against a panel of 350 wild-type kinases in the ^33PanQinase assay. The assay was performed by Reaction Biology (www.reactionbiology.com/services/kinase-assays/kinase-panel-screening/).

350 wild-type kinases [2] = target: T2, 350 wild-type kinases (Homo sapiens, UniProt P07333); assay: as above; format: biochemical; conditions: kinase CSF1R, ATP 0,3 µM, singlicate
T2 construct: purchased Reaction Biology (assay service)
T2 sequence (P07333 20-972): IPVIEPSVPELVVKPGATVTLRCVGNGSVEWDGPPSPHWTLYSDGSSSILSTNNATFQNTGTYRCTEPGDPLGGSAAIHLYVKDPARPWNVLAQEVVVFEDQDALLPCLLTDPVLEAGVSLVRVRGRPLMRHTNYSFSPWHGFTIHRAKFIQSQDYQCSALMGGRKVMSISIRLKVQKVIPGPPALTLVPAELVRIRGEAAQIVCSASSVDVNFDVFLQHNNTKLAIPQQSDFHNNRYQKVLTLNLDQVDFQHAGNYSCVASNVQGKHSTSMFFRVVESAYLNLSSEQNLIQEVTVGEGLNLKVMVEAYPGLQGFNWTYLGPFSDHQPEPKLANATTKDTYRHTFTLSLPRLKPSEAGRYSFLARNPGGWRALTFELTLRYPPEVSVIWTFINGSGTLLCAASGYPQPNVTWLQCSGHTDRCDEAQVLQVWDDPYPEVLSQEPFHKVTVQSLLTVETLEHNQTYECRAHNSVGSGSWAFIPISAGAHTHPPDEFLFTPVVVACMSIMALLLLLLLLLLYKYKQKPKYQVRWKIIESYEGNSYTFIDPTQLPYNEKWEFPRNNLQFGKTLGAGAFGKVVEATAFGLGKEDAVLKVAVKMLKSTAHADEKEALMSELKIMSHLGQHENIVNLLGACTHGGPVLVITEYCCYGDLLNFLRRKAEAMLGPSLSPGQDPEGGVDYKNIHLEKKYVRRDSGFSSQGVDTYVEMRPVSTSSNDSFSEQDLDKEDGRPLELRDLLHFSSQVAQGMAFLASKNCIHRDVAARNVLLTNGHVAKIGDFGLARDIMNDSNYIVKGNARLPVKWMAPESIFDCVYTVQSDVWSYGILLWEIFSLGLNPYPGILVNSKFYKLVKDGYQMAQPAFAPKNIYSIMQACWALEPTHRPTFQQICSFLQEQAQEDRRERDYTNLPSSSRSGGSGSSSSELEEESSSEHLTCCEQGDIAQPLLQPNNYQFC
Procedure: as §1

350 wild-type kinases [3] = target: T3, 350 wild-type kinases (Homo sapiens, UniProt P49336); assay: as above; format: biochemical; conditions: kinase CDK8/CycC, ATP 1 µM, singlicate
T3 construct: purchased Reaction Biology (assay service)
T3 sequence (P49336 whole entry): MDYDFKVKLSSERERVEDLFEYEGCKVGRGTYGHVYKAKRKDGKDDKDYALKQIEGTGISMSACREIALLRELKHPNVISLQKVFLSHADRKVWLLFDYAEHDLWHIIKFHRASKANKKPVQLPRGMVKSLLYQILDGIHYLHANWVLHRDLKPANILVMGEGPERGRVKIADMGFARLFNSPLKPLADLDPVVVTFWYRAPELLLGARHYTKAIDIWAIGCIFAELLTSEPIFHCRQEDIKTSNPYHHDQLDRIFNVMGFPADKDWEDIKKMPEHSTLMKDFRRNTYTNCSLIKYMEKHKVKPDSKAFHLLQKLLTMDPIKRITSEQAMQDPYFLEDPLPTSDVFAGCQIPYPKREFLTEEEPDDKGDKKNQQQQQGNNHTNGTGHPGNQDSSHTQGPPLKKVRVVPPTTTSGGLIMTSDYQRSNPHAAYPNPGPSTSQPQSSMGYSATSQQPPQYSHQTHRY
Procedure: as §1

350 wild-type kinases [4] = target: T4, 350 wild-type kinases (Homo sapiens, UniProt Q13705); assay: as above; format: biochemical; conditions: kinase ACVR2B, ATP 1 µM, singlicate
T4 construct: purchased Reaction Biology (assay service)
T4 sequence (Q13705 19-512): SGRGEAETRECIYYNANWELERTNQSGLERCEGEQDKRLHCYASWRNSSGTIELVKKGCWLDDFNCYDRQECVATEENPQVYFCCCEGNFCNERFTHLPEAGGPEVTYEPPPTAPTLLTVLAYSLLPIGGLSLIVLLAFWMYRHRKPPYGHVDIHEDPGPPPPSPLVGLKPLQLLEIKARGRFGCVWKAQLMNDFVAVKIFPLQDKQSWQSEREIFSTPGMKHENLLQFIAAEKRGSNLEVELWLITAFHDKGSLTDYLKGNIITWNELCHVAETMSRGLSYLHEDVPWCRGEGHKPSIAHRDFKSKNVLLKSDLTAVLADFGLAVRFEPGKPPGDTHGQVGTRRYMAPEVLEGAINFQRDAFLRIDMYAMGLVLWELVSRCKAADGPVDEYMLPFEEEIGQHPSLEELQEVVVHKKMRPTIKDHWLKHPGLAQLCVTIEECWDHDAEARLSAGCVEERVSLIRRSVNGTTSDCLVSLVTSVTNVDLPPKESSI
Procedure: as §1

CDKL1 = target: T5, CDKL1 (Homo sapiens, UniProt Q00532); assay: nanoBRET off-target validation; format: cell-based
T5 construct: host or cells: HEK293T (ATCC CRL-3216)
T5 sequence (Q00532 whole entry): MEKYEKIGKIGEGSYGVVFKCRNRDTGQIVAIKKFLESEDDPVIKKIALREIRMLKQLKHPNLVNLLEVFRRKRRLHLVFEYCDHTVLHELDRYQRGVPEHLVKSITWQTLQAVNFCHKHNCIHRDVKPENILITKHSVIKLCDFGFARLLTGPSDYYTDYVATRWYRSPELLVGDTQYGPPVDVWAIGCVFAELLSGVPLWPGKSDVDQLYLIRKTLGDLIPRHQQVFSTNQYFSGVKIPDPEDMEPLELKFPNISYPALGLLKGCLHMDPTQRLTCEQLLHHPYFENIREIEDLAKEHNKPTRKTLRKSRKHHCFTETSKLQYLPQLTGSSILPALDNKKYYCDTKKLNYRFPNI
Procedure: (§2) The assay was performed as described previously ([61]). In brief, full-length kinases as listed in table S6 were obtained as plasmids cloned in frame with terminal NanoLuc-fusion (gift from Promega; table S6). […] Serially diluted inhibitor and corresponding tracer as listed in table S6 at the Tracer KD concentration taken from TracerDB (tracerdb.org) ([62]) were pipetted into white 384-well plates (Greiner, 781207) using an ECHO acoustic dispenser (Labcyte). The corresponding protein-transfected cells were added and reseeded at a density of 2 × 10^5 cells/ml after trypsinization and resuspending in Opti-MEM without phenol red (Life Technologies). The system was allowed to equilibrate for 3 hours at 37°C/5% CO2 before bioluminescence resonance energy transfer (BRET) measurements. To measure BRET, NanoBRET NanoGlo Substrate + extracellular NanoLuc Inhibitor (Promega, N2540) was added as per the manufacturer’s protocol, and filtered luminescence was measured on a PHERAstar plate reader (BMG Labtech) equipped with a luminescence filter pair [450-nm BP filter (donor) and 610-nm LP filter (acceptor)]. […] (For step-by-step protocol, see www.eubopen.org/sites/www.eubopen.org/files/attachments/2021/NanoBRET-IC50_v1_0.pdf.)

STK10 = target: T6, STK10 (Homo sapiens, UniProt O94804); assay: nanoBRET off-target validation; format: cell-based; conditions: STK10, two replicates
T6 construct: host or cells: HEK293T (ATCC CRL-3216)
T6 sequence (O94804 whole entry): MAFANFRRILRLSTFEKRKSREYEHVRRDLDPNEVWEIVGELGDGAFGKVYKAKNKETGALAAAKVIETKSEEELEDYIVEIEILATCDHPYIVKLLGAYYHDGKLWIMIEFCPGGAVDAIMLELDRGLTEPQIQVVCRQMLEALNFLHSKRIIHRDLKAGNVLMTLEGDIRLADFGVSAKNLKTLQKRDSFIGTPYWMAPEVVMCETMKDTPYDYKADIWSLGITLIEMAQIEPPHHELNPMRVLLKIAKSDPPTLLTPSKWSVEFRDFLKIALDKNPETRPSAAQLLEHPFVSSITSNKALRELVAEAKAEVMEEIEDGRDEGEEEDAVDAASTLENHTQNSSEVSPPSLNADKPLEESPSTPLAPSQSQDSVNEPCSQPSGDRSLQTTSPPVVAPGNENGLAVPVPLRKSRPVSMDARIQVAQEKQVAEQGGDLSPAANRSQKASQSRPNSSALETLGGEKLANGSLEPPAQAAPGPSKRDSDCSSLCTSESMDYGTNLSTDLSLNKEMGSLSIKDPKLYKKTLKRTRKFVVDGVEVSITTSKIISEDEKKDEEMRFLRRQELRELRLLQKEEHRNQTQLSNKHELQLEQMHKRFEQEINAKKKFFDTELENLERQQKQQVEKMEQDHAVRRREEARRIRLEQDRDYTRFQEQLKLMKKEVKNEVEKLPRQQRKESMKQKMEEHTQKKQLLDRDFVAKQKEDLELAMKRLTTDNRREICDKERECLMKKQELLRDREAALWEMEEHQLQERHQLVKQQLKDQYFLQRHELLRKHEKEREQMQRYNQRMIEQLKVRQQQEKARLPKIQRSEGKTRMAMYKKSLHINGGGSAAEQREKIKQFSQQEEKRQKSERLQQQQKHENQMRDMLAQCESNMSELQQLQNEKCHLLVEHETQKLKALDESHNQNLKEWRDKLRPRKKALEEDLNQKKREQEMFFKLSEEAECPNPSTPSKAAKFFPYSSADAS
Procedure: as §2

CCSc1nc(NC)c2c(-c3cccc(NC(=O)Nc4cc(C(C)(C)C)nn4-c4ccc(C)cc4)c3)c[nH]c2n1 [Compound 32]
Residual activity (% of control), AMPKalpha1 (350 wild-type kinases [1]; Assay Conc. 1.0E-05 M): 85 % of control | Residual activity (% of control), AMPKalpha1 (350 wild-type kinases [1]; Assay Conc. 1.0E-06 M): 95 % of control | Residual activity (% of control), CSF1R (350 wild-type kinases [2]; Assay Conc. 1.0E-05 M): 71 % of control | Residual activity (% of control), CSF1R (350 wild-type kinases [2]; Assay Conc. 1.0E-06 M): 100 % of control | Residual activity (% of control), CDK8/CycC (350 wild-type kinases [3]; Assay Conc. 1.0E-05 M): 36 % of control | Residual activity (% of control), CDK8/CycC (350 wild-type kinases [3]; Assay Conc. 1.0E-06 M): 91 % of control | Residual activity (% of control), ACVR2B (350 wild-type kinases [4]; Assay Conc. 1.0E-05 M): 98 % of control | Residual activity (% of control), ACVR2B (350 wild-type kinases [4]; Assay Conc. 1.0E-06 M): 123 % of control | EC50 (CDKL1): 17 µM | remaining activity at 0.008 µM (CDKL1; CDKL1, inhibitor 8 nM, two replicates, read-out: nanoBRET response normalized to 0% (no tracer) and 100% (no inhibitor) control): 102% and 110% | nanoBRET response normalized to 0% (no tracer) and 100% (no inhibitor) control (CDKL1; CDKL1, inhibitor 16 nM, two replicates, listed as RN341, 0.016 µM): 102.251% | remaining activity at 0.016 µM (CDKL1; CDKL1, inhibitor 16 nM, two replicates, read-out: nanoBRET response normalized to 0% (no tracer) and 100% (no inhibitor) control): 96.8% | remaining activity at 0.05 µM (CDKL1; CDKL1, inhibitor 50 nM, two replicates, read-out: nanoBRET response normalized to 0% (no tracer) and 100% (no inhibitor) control): 106% and 102% | nanoBRET response normalized to 0% (no tracer) and 100% (no inhibitor) control (CDKL1; CDKL1, inhibitor 250 nM, two replicates, listed as RN341, […]): 106.285% | remaining activity at […] (CDKL1; CDKL1, inhibitor 250 nM, two replicates, read-out: nanoBRET response normalized to 0% (no tracer) and 100% (no inhibitor) control): 116% | nanoBRET response normalized to 0% (no tracer) and 100% (no inhibitor) control (CDKL1; CDKL1, inhibitor 500 nM, two replicates, listed as RN341, 0.5 µM): 96.8094% | remaining activity at 0.5 µM (CDKL1; CDKL1, inhibitor 500 nM, two replicates, read-out: nanoBRET response normalized to 0% (no tracer) and 100% (no inhibitor) control): 106% | nanoBRET response normalized to 0% (no tracer) and 100% (no inhibitor) control (CDKL1; CDKL1, inhibitor 2500 nM, two replicates, listed as RN341, […]): 88.1398% | remaining activity at […] (CDKL1; CDKL1, inhibitor 2500 nM, two replicates, read-out: nanoBRET response normalized to 0% (no tracer) and 100% (no inhibitor) control): 91% | nanoBRET response normalized to 0% (no tracer) and 100% (no inhibitor) control (CDKL1; CDKL1, inhibitor 5000 nM, two replicates, listed as RN341, 5 µM): 77.8643% | remaining activity at 5 µM (CDKL1; CDKL1, inhibitor 5000 nM, two replicates, read-out: nanoBRET response normalized to 0% (no tracer) and 100% (no inhibitor) control): 74.8% | nanoBRET response normalized to 0% (no tracer) and 100% (no inhibitor) control (CDKL1; CDKL1, inhibitor 25000 nM, two replicates, listed as RN341, 25 µM): 39.2489% | remaining activity at 25 µM (CDKL1; CDKL1, inhibitor 25000 nM, two replicates, read-out: nanoBRET response normalized to 0% (no tracer) and 100% (no inhibitor) control): 46.9% | nanoBRET response normalized to 0% (no tracer) and 100% (no inhibitor) control (STK10; inhibitor 8 nM, listed as RN341, 0.008 µM): 93.5752% | remaining activity at 0.008 µM (STK10; inhibitor 8 nM, read-out: nanoBRET response normalized to 0% (no tracer) and 100% (no inhibitor) control): 98.7% | nanoBRET response normalized to 0% (no tracer) and 100% (no inhibitor) control (STK10; inhibitor 16 nM, listed as RN341, 0.016 µM): 98.653% | remaining activity at 0.016 µM (STK10; inhibitor 16 nM, read-out: nanoBRET response normalized to 0% (no tracer) and 100% (no inhibitor) control): 95% | nanoBRET response normalized to 0% (no tracer) and 100% (no inhibitor) control (STK10; inhibitor 50 nM, listed as RN341, 0.05 µM): 90.2983% | remaining activity at 0.05 µM (STK10; inhibitor 50 nM, read-out: nanoBRET response normalized to 0% (no tracer) and 100% (no inhibitor) control): 93.4% | nanoBRET response normalized to 0% (no tracer) and 100% (no inhibitor) control (STK10; inhibitor 250 nM, listed as RN341, […]): 75.9451% | remaining activity at […] (STK10; inhibitor 250 nM, read-out: nanoBRET response normalized to 0% (no tracer) and 100% (no inhibitor) control): 77.3% | nanoBRET response normalized to 0% (no tracer) and 100% (no inhibitor) control (STK10; inhibitor 500 nM, listed as RN341, 0.5 µM): 59.4137% | remaining activity at 0.5 µM (STK10; inhibitor 500 nM, read-out: nanoBRET response normalized to 0% (no tracer) and 100% (no inhibitor) control): 61.4% | nanoBRET response normalized to 0% (no tracer) and 100% (no inhibitor) control (STK10; inhibitor 2500 nM, listed as RN341, […]): 44.5595% | remaining activity at […] (STK10; inhibitor 2500 nM, read-out: nanoBRET response normalized to 0% (no tracer) and 100% (no inhibitor) control): 60.9% | nanoBRET response normalized to 0% (no tracer) and 100% (no inhibitor) control (STK10; inhibitor 5000 nM, listed as RN341, 5 µM): 40.1132% | remaining activity at 5 µM (STK10; inhibitor 5000 nM, read-out: nanoBRET response normalized to 0% (no tracer) and 100% (no inhibitor) control): 58.5%
